In article PMC6667205, “Antitumor activity of novel pyrazole-based small molecular inhibitors of the STAT3 pathway in patient derived high grade glioma cells” (PLoS ONE, 2019):

Biological target: T1, STAT3 (Homo sapiens, UniProt P40763)
T1 construct: GST-STAT3
Assay: TR-FRET displacement of fluorescent phosphopeptide (5-FAM-G(pY)LPQTVC-NH2) from GST-STAT3
Format: binding

T1 sequence (P40763 2-770): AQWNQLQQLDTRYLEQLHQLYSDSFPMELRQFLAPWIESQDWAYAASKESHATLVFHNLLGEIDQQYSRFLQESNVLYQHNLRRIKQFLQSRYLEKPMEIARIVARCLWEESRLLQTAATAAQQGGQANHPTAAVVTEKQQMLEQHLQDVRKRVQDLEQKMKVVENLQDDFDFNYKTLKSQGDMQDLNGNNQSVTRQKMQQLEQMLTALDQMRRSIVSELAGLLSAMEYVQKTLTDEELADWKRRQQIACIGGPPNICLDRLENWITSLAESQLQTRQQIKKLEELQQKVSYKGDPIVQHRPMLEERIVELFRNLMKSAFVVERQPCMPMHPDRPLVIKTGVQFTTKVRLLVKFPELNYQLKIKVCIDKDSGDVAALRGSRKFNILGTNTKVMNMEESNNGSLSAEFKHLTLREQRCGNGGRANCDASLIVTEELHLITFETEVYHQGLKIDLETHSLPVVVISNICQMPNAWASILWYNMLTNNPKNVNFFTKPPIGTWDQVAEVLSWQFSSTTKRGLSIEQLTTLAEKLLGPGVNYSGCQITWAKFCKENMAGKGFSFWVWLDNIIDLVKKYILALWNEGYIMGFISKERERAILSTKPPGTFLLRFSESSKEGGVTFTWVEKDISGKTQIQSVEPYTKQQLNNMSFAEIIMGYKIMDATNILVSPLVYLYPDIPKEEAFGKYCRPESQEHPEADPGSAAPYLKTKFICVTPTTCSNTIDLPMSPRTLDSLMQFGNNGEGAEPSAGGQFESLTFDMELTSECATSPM

Substance: S3I-1757
- IC50: 62.1 ± 6.1 µM
